Results as given in patent publication US20250152612A1, “POLYPEPTIDE COUPLED BORON CARRYING AGENT, PREPARATION METHOD THEREFOR, AND PHARMACEUTICAL FORMULATION” (Peking University, priority 2021, published 2025).

What was measured:
[1] = system: HS683 cells; conditions: 12 hours incubation; B content per 10^6 cells; FIG. 4
Experimental: (§1) 0.2 mg/g. 0.4 mg/g. 0.6 mg/g and 0.8 mg/g, added to U87MG, U251, A375, A549, HS683 and Hep cell lines cultured in 25 T petri dishes, respectively, and incubated in a thermostatic incubator for 12 hours. Subsequently, the cells and culture medium were separated, and the number of cells was determined. After digesting the cells with concentrated nitric acid, the B content in the cells was determined by ICP-AES.
(§2) Meanwhile, the BPA was formulated into aqueous solutions of 0.1 mg/g, 0.2 mg/g, 0.4 mg/g, 0.6 mg/g, and 0.8 mg/g, added into U87MG, U251, A375, A549, HS683 and Hep cell lines cultured in 25 T petri dishes, respectively, and incubated in a thermostatic incubator for 12 hours. Subsequently, the cells and culture medium were separated, and the number of cells was determined. After digesting the cells with concentrated nitric acid, the B content in the cells was determined by ICP-AES.
(§3) The […] is 249.772 nm. After determination, the B content contained in every 10^6 cells can be calculated and plotted in FIG. 4.

[2] = system: A375 cells; conditions: 12 hours incubation; B content per 10^6 cells; FIG. 4
Experimental: as §1, §2, §3

N-4-carboxyphenylboronic acid amide-arginine-lysine-lysine-lysine-arginine-arginine-glutamine-arginine-arginine-arginine [compound 2]
uptake in cerebral glioma HS683 cells compared with BPA [1]: significantly higher than BPA | uptake in A375 cells compared with BPA [2]: significantly higher than BPA
